From US12264356B2, “Method for determining sensitivity to SGLT2 inhibitor and sensitivity marker for SGLT2 inhibitor” (NIHON UNIVERSITY, priority 2019, dated 2025)

System: patients suffering from coronary artery disease complicated with type 2 diabetes
Assay: Administration of SGLT2 inhibitor (50 mg Ipragliflozin) for 3 months; changes in individual indicators before and after administration
Assay type: in vivo, human
Conditions: for 1,5-AG after administration of SGLT2 inhibitor: P <0.001
Procedure: Thirty patients suffering from coronary artery disease complicated with type 2 diabetes (28 male patients and 2 female patients; average age: 70.5±8.1 years old) who did outpatient visit and could not sufficiently control their blood glucose level only by administration with an oral hypoglycemic agent were used as subjects. Patients whose casual urinary sugar was positive before administration of the agent were excluded from the subjects. The aforementioned patients were administered with the SGLT2 inhibitor (50 mg Ipragliflozin; 30 cases) alone or in combination with other oral hypoglycemic agents for 3 months. In the additional administration groups, the antidiabetic agents used in combination with the SGLT2 inhibitor were 10 cases of sulfonylurea drugs, 19 cases of DPP-4 inhibitors, 9 cases of thiazolidine drugs, and 4 cases of metformin. The average number of the combined agents was 2.4. During the observation period, the combined antidiabetic agents were not changed.
Before administration of the SGLT2 inhibitor and 3 months after the first administration, 1,5-AG, HbA1c, casual urinary sugar (U-Sugar), LDL cholesterol (LDL-C), hematocrit (Ht), NT-proBNP, and eGFR (estimated glomerular filtration rate) were measured, and changes in individual indicators before and after the administration were examined. Moreover, regarding cases in which the 1,5-AG value before administration of the SGLT2 inhibitor was less than 13 μg/mL (19 male patient cases), changes in individual indicators before and after the administration were examined.
1,5-AG was measured by an enzymatic method (the aforementioned Lana 1,5AG Auto Liquid, manufactured by Nippon Kayaku Co., Ltd.); HbA1c was measured by an HPLC method (manufactured by Tosoh Co., Ltd.); casual urinary sugar was measured by a test paper method (manufactured by Eiken Chemical Co., Ltd.); and LDL cholesterol was measured by an enzymatic method (manufactured by SEKISUI MEDICAL CO., LTD.) and NT-pro BNP was measured by an ELC-EIA method (manufactured by Roche Diagnostics K. K.).
In Table 5 and Table 6, the results are shown with mean±SD, and for statistical analyses, a paired t-test was applied, and p<0.05 was defined to be statistically significant.

OC[C@H]1O[C@@H](c2ccc(F)c(Cc3cc4ccccc4s3)c2)[C@H](O)[C@@H](O)[C@@H]1O [Ipragliflozin]
1,5-AG after administration of SGLT2 inhibitor (19 male patients with 1,5-AG less than 13 μg/mL before administration, 50 mg, 3 months, mean ± SD, before 8.6 ± 2.9): 1.7 ± 0.8 µg/mL | HbA1c after administration of SGLT2 inhibitor (19 male patients with 1,5-AG less than 13 μg/mL before administration, 3 months, before 7.2 ± 0.8, P = 0.13): 6.8 ± 0.6 | 1,5-AG after administration of SGLT2 inhibitor (30 patients, 50 mg, 3 months after first administration, mean ± SD, before administration 12.8 ± 6.7): 2.5 ± 2.0 | HbA1c after administration of SGLT2 inhibitor (30 patients, 50 mg, 3 months, mean ± SD, before 7.0 ± 0.8, P = 0.40): 7.2 ± 1.2
